Literature values in patent US10015963B2, “Microemulsions of lipidated glycines and phenoxy ethanol for preservation of personal care products” (GALAXY SURFACTANTS LTD., priority 2014, dated 2018).

Experiments:
[1] = carboxyl group
[2] = at room temperature

Row | pKa [1] | Compound | phenoxy ethanol solubilized in water [2]
1 | 4.05 | CCCCCCCC(=O)NCC(=O)O [capryloyl glycine, N-capryloyl glycine] | 
2 |  | OCCOc1ccccc1 [phenoxy ethanol, 2-phenoxy ethanol] | 2.3%
